In PMC11111691, “Cystine-knot peptide inhibitors of HTRA1 bind to a cryptic pocket within the active site region” (Nature Communications, 2024):
Positions of bridges follow the written chain, without caps; N, C: chain ends. Residues, ends and D or L forms follow the SMILES beside them.

Biological target: T1, HTRA1^PD(SA) (Homo sapiens, UniProt Q92743, S328A)
T1 construct: The protease domains of human HTRA1 (HTRA1^PD; D161-K379); made in house; host or cells: E. coli
Experiment: SPR binding kinetics to HTRA1^PD(SA)
Conditions: mean ± S.D. of three or more independent experiments; for koff / kon: SPR Biacore S200, 25 °C, single cycle kinetics, 1:1 Langmuir model; for Kd: SPR, calculated from kon and koff, CPI up to 10 µM
Experimental: Surface plasmon resonance (SPR) experiments were performed using a Biacore S200 instrument at 25 °C. His-tagged HTRA proteins were captured on a CM5 sensor chip using the His-capture kit (GE Healthcare). Protein concentrations used for immobilization were as follows; HTRA1^PD(SA), HTRA1^PD and HTRA1^PD-ABP 2 µg/ml with 60-s injections at 10 µl/min, HTRA2^PD/PDZ, HTRA3^PD/PDZ, and HTRA4^PD/PDZ 4 µg/ml with 60-s injections at 10 µl/min. Approximate immobilization levels of HTRA proteins were as follows; HTRA1^PD(SA) 700 RU, HTRA1^PD 900 RU, HTRA1^PD-ABP 900 RU, HTRA2^PD/PDZ 500 RU, HTRA3^PD/PDZ 500 RU, HTRA4^PD/PDZ 500 RU. All CKPs were prepared in HBS-EP buffer (0.01 M HEPES pH 7.4, 0.15 M NaCl, 3 mM EDTA, 0.005% v/v Surfactant P20). All CKP concentrations were injected for 120 s at a flow rate of 30 μl/min. A reference channel was subtracted from the HTRA-captured channel.
Binding kinetics of peptides to HTRA1^PD(SA) were determined by flowing six serial three-fold dilutions of peptide over the HTRA1^PD(SA) immobilized surface using a single cycle kinetics model. CKP maximum concentrations were as follows: 1A7, 1A8, 1C10, 2D5, and 3A7, 300 nM; 1G10-ENI and 1D3-ENI, 100 nM; 3B3, 3000 nM; and CPI, 10,000 nM. Data were analyzed using GE BIA evaluation software using a 1:1 Langmuir binding model. The KD values, calculated from the determined kon and koff values, were the mean ± S.D. of 3–4 independent experiments.

T1 sequence (Q92743 161-379 S328A): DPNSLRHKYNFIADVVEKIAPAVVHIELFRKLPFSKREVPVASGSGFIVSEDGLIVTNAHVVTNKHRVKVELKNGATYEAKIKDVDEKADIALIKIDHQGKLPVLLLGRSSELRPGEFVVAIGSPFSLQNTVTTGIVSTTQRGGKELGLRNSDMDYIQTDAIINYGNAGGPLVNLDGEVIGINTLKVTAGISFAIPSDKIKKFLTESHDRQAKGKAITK

## CC[C@H](C)[C@H](NC(=O)[C@@H]1CCCN1C(=O)[C@H](CC(=O)O)NC(=O)[C@H](C)NC(=O)[C@@H](N)Cc1c[nH]cn1)C(=O)N[C@H]1CSSC[C@@H]2NC(=O)[C@H](Cc3ccccc3)NC(=O)[C@H](Cc3c[nH]c4ccccc34)NC(=O)[C@H](C)NC(=O)CNC(=O)[C@H](CO)NC(=O)[C@@H]3CSSC[C@@H](C(=O)N[C@@H](CCC(N)=O)C(=O)N[C@@H](Cc4c[nH]c5ccccc45)C(=O)N4CCC[C@H]4C(=O)N4CCC[C@H]4C(=O)N[C@@H](CCCNC(=N)N)C(=O)N[C@@H](Cc4c[nH]cn4)C(=O)N[C@@H](CCCNC(=N)N)C(=O)N[C@@H](CC(=O)O)C(N)=O)NC(=O)[C@H](CO)NC(=O)[C@H](Cc4c[nH]c5ccccc45)NC(=O)[C@H]([C@@H](C)O)NC(=O)[C@H](C)NC(=O)[C@H](Cc4ccc(O)cc4)NC(=O)[C@H](Cc4ccc(O)cc4)NC(=O)[C@H](CSSC[C@H](NC(=O)[C@@H]4CCCN4C(=O)[C@H](CCCCN)NC(=O)[C@H](CC(N)=O)NC1=O)C(=O)N[C@@H](CCCCN)C(=O)N[C@@H]([C@@H](C)O)C(=O)N[C@@H](Cc1c[nH]cn1)C(=O)N[C@@H](CC(=O)O)C(=O)N[C@@H](CC(=O)O)C(=O)N3)NC(=O)[C@H]([C@@H](C)O)NC(=O)[C@H](CCC(N)=O)NC2=O [2D5] (H-HADPICNKPCKTHDDCSGAWFCQTCYYATWSCQWPPRHRD-NH2; disulfide 6-22, 10-25, 16-32)
  koff: 1.0 ± 0.1 s-1 x10-4
  kon: 10.5 ± 0.9 M-1 s-1 x104
  Kd: 0.94 ± 0.12 nM

## CC[C@H](C)[C@H](NC(=O)[C@@H]1CCCN1C(=O)[C@H](CC(=O)O)NC(=O)[C@H](C)NC(=O)[C@@H](N)Cc1c[nH]cn1)C(=O)N[C@H]1CSSC[C@@H]2NC(=O)[C@H](Cc3ccccc3)NC(=O)[C@H](Cc3c[nH]c4ccccc34)NC(=O)[C@H](C)NC(=O)CNC(=O)[C@H](CO)NC(=O)[C@@H]3CSSC[C@@H](C(=O)NCC(=O)N4CCC[C@H]4C(=O)NCC(=O)N[C@@H](Cc4c[nH]c5ccccc45)C(=O)N[C@@H](CCCNC(=N)N)C(N)=O)NC(=O)[C@H](CO)NC(=O)[C@H](Cc4c[nH]c5ccccc45)NC(=O)[C@H]([C@@H](C)O)NC(=O)[C@H](C)NC(=O)[C@H](Cc4ccc(O)cc4)NC(=O)[C@H](Cc4ccc(O)cc4)NC(=O)[C@H](CSSC[C@H](NC(=O)[C@@H]4CCCN4C(=O)[C@H](CCCCN)NC(=O)[C@H](CC(N)=O)NC1=O)C(=O)N[C@@H](CCCCN)C(=O)N[C@@H]([C@@H](C)O)C(=O)N[C@@H](Cc1c[nH]cn1)C(=O)N[C@@H](CC(=O)O)C(=O)N[C@@H](CC(=O)O)C(=O)N3)NC(=O)[C@H](C)NC(=O)[C@H](CCC(N)=O)NC2=O [1A7] (H-HADPICNKPCKTHDDCSGAWFCQACYYATWSCGPGWR-NH2; disulfide 6-22, 10-25, 16-32)
  koff: 6.5 ± 0.7 s-1 x10-4
  kon: 9.4 ± 1.3 M-1 s-1 x104
  Kd: 7 ± 0.5 nM

## CC[C@H](C)[C@H](NC(=O)[C@@H]1CCCN1C(=O)[C@H](CC(=O)O)NC(=O)[C@H](C)NC(=O)[C@@H](N)Cc1c[nH]cn1)C(=O)N[C@H]1CSSC[C@@H]2NC(=O)[C@H](Cc3ccccc3)NC(=O)[C@H](Cc3c[nH]c4ccccc34)NC(=O)[C@H](C)NC(=O)CNC(=O)[C@H](CO)NC(=O)[C@@H]3CSSC[C@@H](C(=O)NCC(=O)N4CCC[C@H]4C(=O)N[C@@H](Cc4ccc(O)cc4)C(=O)N[C@H](C(=O)NCC(N)=O)C(C)C)NC(=O)[C@H](CCCNC(=N)N)NC(=O)[C@H](Cc4c[nH]c5ccccc45)NC(=O)[C@H](CC(N)=O)NC(=O)[C@H](C)NC(=O)[C@H](Cc4ccccc4)NC(=O)[C@H](Cc4ccc(O)cc4)NC(=O)[C@H](CSSC[C@H](NC(=O)[C@@H]4CCCN4C(=O)[C@H](CCCCN)NC(=O)[C@H](CC(N)=O)NC1=O)C(=O)N[C@@H](CCCCN)C(=O)N[C@@H]([C@@H](C)O)C(=O)N[C@@H](Cc1c[nH]cn1)C(=O)N[C@@H](CC(=O)O)C(=O)N[C@@H](CC(=O)O)C(=O)N3)NC(=O)[C@H](C)NC(=O)[C@H](CCC(N)=O)NC2=O [3A7] (H-HADPICNKPCKTHDDCSGAWFCQACYFANWRCGPYVG-NH2; disulfide 6-22, 10-25, 16-32)
  koff: 2.8 ± 0.2 s-1 x10-4
  kon: 4.5 ± 0.3 M-1 s-1 x104
  Kd: 6.2 ± 0.2 nM

## CC[C@H](C)[C@H](NC(=O)[C@@H]1CCCN1C(=O)[C@H](CC(=O)O)NC(=O)[C@H](C)NC(=O)[C@@H](N)Cc1c[nH]cn1)C(=O)N[C@H]1CSSC[C@@H]2NC(=O)[C@H](Cc3ccccc3)NC(=O)[C@H](Cc3c[nH]c4ccccc34)NC(=O)[C@H](C)NC(=O)CNC(=O)[C@H](CO)NC(=O)[C@@H]3CSSC[C@@H](C(=O)NCC(=O)N4CCC[C@H]4C(=O)NCC(=O)N[C@@H](CCCNC(=N)N)C(=O)N[C@@H](Cc4ccc(O)cc4)C(N)=O)NC(=O)[C@H](CO)NC(=O)[C@H](Cc4c[nH]c5ccccc45)NC(=O)[C@H]([C@@H](C)O)NC(=O)[C@H](C)NC(=O)[C@H](Cc4ccc(O)cc4)NC(=O)[C@H](Cc4ccc(O)cc4)NC(=O)[C@H](CSSC[C@H](NC(=O)[C@@H]4CCCN4C(=O)[C@H](CCCCN)NC(=O)[C@H](CC(N)=O)NC1=O)C(=O)N[C@@H](CCCCN)C(=O)N[C@@H]([C@@H](C)O)C(=O)N[C@@H](Cc1c[nH]cn1)C(=O)N[C@@H](CC(=O)O)C(=O)N[C@@H](CC(=O)O)C(=O)N3)NC(=O)[C@H](C)NC(=O)[C@H](CCC(N)=O)NC2=O [1C10] (H-HADPICNKPCKTHDDCSGAWFCQACYYATWSCGPGRY-NH2; disulfide 6-22, 10-25, 16-32)
  koff: 4.7 ± 0.1 s-1 x10-4
  kon: 7.7 ± 2.4 M-1 s-1 x104
  Kd: 6.5 ± 2.2 nM
